Experimental findings from ChEMBL document CHEMBL1268971, “4,5-Dihydro-1H-pyrazolo[4,3-h]quinazolines as potent and selective Polo-like kinase 1 (PLK1) inhibitors” (Bioorg Med Chem Lett, 2010) are described below.

pIC50: −log10 of the molar value. In brackets after ≈: the same amount, converted by molar mass. Where only a bound is given, the exact number is not on record here.

Data set [1] has as its target Serine/threonine-protein kinase PLK2 (Homo sapiens, UniProt Q9NYY3). Kind of data set: Inhibition of PLK2.
Data set [2] addresses Serine/threonine-protein kinase PLK3 (Homo sapiens, UniProt Q9H4B4). Nature of the data set: Inhibition of PLK3.
Data set [3] can be described thus: Solubility of the compound at pH 7. Type of data set: physicochemical. The note with it: buffer.
Data set [4] concerns the target Cyclin-dependent kinase 2/cyclin A (Homo sapiens, UniProt P24941). Nature of the data set: Inhibition of CDK2/Cyclin A. The class given is protein-complex assay.
Data set [5] is described as follows: Inhibition of casein kinase 2.
Data set [6] deals with T1, Receptor-type tyrosine-protein kinase FLT3 (Homo sapiens, UniProt P36888).
T1 sequence (P36888 whole entry): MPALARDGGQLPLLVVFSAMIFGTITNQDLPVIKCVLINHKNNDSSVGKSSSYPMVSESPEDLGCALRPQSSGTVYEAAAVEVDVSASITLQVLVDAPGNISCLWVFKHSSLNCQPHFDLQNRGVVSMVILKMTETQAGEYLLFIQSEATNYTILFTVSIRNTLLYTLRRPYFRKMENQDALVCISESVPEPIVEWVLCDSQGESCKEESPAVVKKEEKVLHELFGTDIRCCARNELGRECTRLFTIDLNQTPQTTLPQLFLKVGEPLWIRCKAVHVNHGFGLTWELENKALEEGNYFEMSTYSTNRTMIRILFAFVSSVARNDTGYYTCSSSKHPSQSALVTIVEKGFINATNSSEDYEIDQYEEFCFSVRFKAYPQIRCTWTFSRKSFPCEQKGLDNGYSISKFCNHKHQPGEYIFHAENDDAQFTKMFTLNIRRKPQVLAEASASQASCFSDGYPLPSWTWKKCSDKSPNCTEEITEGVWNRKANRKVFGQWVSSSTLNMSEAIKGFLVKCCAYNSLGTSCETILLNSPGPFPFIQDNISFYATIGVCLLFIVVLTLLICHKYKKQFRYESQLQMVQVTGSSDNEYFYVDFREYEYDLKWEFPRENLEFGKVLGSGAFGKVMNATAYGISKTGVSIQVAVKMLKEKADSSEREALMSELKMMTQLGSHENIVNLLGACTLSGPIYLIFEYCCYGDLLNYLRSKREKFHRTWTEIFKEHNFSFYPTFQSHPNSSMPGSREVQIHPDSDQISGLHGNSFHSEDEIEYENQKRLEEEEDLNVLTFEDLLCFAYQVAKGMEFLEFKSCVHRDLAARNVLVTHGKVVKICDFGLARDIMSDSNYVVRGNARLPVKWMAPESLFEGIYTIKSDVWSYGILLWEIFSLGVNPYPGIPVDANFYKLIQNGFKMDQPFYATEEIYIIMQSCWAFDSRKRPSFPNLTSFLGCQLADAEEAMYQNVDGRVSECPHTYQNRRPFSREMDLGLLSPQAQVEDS
Kind of data set: Inhibition of FLT3.

The target of data set [7] is Serine/threonine-protein kinase Nek6 (Homo sapiens, UniProt Q9HC98). Kind of data set: Inhibition of NEK6.
Sequence of Serine/threonine-protein kinase Nek6 (Q9HC98 whole entry): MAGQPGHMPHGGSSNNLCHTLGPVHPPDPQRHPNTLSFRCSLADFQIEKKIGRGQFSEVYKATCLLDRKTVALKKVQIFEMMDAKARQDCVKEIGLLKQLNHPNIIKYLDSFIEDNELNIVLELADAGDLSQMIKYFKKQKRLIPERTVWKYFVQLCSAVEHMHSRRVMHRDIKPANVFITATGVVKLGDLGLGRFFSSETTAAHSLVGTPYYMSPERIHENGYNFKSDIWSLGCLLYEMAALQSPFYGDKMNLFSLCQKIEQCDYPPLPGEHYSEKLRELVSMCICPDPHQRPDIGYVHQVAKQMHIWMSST
The nature of data set [8]: Inhibition of PDGFR.
Data set [9] has as its target ALK tyrosine kinase receptor (Homo sapiens, UniProt Q9UM73). Nature of the data set: Inhibition of ALK.
Data set [10] is described as follows: Solubility of the compound at 105 Tween 80. The class given is physicochemical.
Data set [11] can be described thus: Permeability of the compound by PAMPA. Type of data set: ADME.
A short description of data set [12]: Intrinsic clearance in human liver microsomes. Type of data set: ADME, Microsome.
Data set [13] can be described thus: AUC (0 to infinity) in CD1 mouse at 10 mg/kg, iv administered as single dose by LC/MS/MS analysis. Type of data set: ADME, organism-based. On the set-up: time infinity, dose 10 mg/kg, route intravenous. As to conditions: plasma.
Data set [14] is described as follows: Clearance in CD1 mouse at 10 mg/kg, iv administered as single dose by LC/MS/MS analysis. Type of data set: ADME, organism-based. On the set-up: dose 10 mg/kg, route intravenous. As to conditions: in vivo.
Data set [15] is described as follows: Volume of distribution at steady state in CD1 mouse at 10 mg/kg, iv administered as single dose by LC/MS/MS analysis. Set-up: dose 10 mg/kg, route intravenous. Type of data set: ADME, organism-based. The note with it: in vivo, read-out: Vdss.
Data set [16] can be described thus: Terminal half life in CD1 mouse at 10 mg/kg, iv administered as single dose by LC/MS/MS analysis. Set-up: dose 10 mg/kg, route intravenous. The note with it: in vivo, read-out: beta t1/2 (converted). Type of data set: ADME, organism-based.
The nature of data set [17]: Cmax in CD1 mouse at 10 mg/kg, po administered as single dose by LC/MS/MS analysis. Type of data set: ADME, organism-based. On the set-up: dose 10 mg/kg, route oral. The note with it: in vivo.
Data set [18] can be described thus: AUC (0 to infinity) in CD1 mouse at 10 mg/kg, po administered as single dose by LC/MS/MS analysis. Type of data set: ADME, organism-based. On the set-up: time infinity, dose 10 mg/kg, route oral. As to conditions: plasma.
Data set [19] is described as follows: Terminal half life in CD1 mouse at 10 mg/kg, po administered as single dose by LC/MS/MS analysis. On the set-up: dose 10 mg/kg, route oral. The note with it: in vivo, read-out: beta t1/2 (converted). The class given is ADME, organism-based.
The nature of data set [20]: Oral bioavailability in CD1 mouse at 10 mg/kg administered as single dose by LC/MS/MS analysis. The class given is ADME, organism-based. The note with it: in vivo.
In a further data set the test system is A2780. Kind of data set: cells. As to conditions: Homo sapiens, A2780, 72 h.

Sequence of Serine/threonine-protein kinase PLK3 (Q9H4B4 whole entry): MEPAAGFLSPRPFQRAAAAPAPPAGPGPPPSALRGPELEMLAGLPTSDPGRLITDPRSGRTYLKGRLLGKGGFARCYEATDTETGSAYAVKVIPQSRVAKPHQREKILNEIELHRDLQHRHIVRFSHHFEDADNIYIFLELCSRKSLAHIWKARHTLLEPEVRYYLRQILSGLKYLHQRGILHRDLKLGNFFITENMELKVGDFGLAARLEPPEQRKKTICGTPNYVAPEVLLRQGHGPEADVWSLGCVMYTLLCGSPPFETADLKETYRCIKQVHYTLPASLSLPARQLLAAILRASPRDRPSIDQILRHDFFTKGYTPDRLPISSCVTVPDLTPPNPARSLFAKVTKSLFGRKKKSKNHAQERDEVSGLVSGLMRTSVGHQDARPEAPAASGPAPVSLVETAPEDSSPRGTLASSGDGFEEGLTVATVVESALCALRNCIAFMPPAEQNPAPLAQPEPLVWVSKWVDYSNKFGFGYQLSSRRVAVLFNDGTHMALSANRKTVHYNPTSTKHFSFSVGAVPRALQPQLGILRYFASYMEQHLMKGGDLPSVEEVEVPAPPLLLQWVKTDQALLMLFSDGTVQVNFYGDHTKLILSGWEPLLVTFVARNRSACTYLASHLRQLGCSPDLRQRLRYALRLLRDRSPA
Sequence of Serine/threonine-protein kinase PLK2 (Q9NYY3 whole entry): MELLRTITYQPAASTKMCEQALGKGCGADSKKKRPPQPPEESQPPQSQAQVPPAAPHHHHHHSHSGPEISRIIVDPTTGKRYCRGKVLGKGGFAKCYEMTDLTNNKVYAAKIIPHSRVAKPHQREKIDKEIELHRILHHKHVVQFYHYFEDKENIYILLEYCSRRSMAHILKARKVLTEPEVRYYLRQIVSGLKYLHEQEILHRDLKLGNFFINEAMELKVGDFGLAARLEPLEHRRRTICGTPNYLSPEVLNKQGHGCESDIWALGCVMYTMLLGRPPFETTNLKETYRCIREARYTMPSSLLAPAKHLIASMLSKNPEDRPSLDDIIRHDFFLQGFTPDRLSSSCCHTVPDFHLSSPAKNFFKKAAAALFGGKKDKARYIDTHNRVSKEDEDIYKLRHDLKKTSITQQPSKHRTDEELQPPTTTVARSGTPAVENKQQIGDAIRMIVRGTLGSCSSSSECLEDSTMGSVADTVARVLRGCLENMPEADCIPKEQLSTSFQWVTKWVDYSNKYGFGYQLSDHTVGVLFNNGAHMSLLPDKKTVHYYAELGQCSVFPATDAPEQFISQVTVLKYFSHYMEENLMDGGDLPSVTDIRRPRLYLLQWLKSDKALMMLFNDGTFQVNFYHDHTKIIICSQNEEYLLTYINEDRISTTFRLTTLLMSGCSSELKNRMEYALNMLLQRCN
Sequence of ALK tyrosine kinase receptor (Q9UM73 whole entry): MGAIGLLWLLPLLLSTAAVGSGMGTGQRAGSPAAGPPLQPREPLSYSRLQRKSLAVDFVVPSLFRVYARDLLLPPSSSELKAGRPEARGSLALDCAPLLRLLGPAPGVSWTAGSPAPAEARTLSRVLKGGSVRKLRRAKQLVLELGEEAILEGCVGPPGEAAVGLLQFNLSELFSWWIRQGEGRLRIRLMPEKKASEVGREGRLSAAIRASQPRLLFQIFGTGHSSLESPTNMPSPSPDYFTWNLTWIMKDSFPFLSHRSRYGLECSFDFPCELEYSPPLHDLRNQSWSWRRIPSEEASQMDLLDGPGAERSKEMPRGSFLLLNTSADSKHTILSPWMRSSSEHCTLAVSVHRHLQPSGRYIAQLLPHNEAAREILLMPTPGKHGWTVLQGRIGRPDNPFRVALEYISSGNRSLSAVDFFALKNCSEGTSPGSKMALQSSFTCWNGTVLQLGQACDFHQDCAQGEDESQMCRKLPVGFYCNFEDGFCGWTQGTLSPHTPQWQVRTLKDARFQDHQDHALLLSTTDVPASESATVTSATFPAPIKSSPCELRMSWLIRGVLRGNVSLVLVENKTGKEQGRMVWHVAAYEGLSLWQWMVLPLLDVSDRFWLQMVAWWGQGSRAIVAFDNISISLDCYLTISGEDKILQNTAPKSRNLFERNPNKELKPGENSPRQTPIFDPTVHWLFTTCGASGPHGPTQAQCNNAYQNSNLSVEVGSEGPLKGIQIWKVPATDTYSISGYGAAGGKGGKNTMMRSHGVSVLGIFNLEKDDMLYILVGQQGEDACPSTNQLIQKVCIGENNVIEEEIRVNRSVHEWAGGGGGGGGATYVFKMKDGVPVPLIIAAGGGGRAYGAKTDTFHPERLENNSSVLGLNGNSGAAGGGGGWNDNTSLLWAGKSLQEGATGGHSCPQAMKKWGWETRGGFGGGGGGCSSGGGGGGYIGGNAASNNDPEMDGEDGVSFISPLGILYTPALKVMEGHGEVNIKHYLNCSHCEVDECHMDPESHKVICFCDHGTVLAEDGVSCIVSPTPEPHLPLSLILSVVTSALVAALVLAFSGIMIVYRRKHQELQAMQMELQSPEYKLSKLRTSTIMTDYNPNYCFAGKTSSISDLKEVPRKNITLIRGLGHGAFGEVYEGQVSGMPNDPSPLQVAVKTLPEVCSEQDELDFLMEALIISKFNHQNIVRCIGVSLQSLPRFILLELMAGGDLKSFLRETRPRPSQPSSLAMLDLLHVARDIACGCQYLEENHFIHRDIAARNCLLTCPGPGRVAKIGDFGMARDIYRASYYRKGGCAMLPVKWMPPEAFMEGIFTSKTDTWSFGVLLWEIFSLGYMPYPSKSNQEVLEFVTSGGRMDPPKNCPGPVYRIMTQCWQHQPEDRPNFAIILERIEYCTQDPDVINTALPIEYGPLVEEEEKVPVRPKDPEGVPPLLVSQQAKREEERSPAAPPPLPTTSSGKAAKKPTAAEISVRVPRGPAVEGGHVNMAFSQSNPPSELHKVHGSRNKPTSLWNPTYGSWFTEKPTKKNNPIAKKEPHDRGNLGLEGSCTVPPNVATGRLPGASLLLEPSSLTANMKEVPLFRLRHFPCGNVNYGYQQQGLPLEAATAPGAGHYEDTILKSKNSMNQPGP

Take `C=Cn1nc(C(N)=O)c2c1-c1nc(Nc3cc(N4CCN(C)CC4)ccc3OC(F)(F)F)ncc1CC2`: the pIC50 in data set [1] was 6.47; in data set [2], 6.74; in [4] it was less than 5.00; in data set [5] it was 7.16; in data set [6], 6.65; in [7], 6.47. Further, the pIC50 in data set [8] is 5.84; in data set [9], 5.62; in the data set on A2780 it was 8.10. For the same compound, the values for the solubility in data set [3] and in data set [10] were 8 µM (≈ 4.12 µg/mL) and more than 3200 µg/mL, respectively. Further, in data set [11], the Papp worked out at 19.6 ×10⁻⁶ cm/s. In addition, the intrinsic clearance (CLint scaled) in [12] was determined as 28.8 mL/min/kg. Moreover, the values for the AUC(0-inf) in data set [13] and in data set [18] were 5.37 µM·h and 2.15 µM·h, respectively. This compound had a clearance in data set [14] of 57.3 mL/min/kg. Moreover, the Vd in data set [15] worked out at 2.58 L/kg. The half-life was 0.89 h in data set [16] and 2.58 h in data set [19]. In data set [17], this compound had a Cmax of 610 nM. Moreover, in data set [20], the bioavailability was determined as 29%.
